From PubChem BioAssay (NCI)
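Results reflect a 48-hour exposure of cells in 96-well plates to compound at five concentrations. At the TGI there is no net growth.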

Experiments:
Assay in all cases: DTP human tumour cell line panel, 48 h
[1] = tested on: SNB-75 CNS
[2] = tested on: A498 renal
[3] = tested on: MOLT-4 leukemia
[4] = tested on: TK-10 renal
[5] = tested on: KM12 colon
[6] = tested on: SNB-19 CNS
[7] = tested on: IGROV1 ovarian
[8] = tested on: SK-MEL-5 melanoma
[9] = tested on: HCC-2998 colon
[10] = tested on: T-47D breast
[11] = tested on: NCI-H522 lung
[12] = tested on: SF-539 CNS
[13] = tested on: LOX IMVI melanoma
[14] = tested on: COLO 205 colon
[15] = tested on: MALME-3M melanoma
[16] = tested on: OVCAR-4 ovarian
[17] = tested on: DU-145 prostate
[18] = tested on: RXF 393 renal
[19] = tested on: MDA-N
[20] = tested on: BT-549 breast
[21] = tested on: NCI-H226 lung
[22] = tested on: 786-0 renal
[23] = tested on: RPMI-8226 leukemia
[24] = tested on: SF-268 CNS
[25] = tested on: U251 CNS
[26] = tested on: HT29 colon
[27] = tested on: A549 NSCLC
[28] = tested on: SW-620 colon
[29] = tested on: HL-60(TB) leukemia
[30] = tested on: MDA-MB-435
[31] = tested on: UO-31 renal
[32] = tested on: HOP-62 NSCLC
[33] = tested on: CAKI-1 renal
[34] = tested on: OVCAR-5 ovarian
[35] = tested on: OVCAR-3 ovarian
[36] = tested on: NCI-H460 lung
[37] = tested on: OVCAR-8 ovarian
[38] = tested on: HS 578T breast
[39] = tested on: ACHN renal
[40] = tested on: UACC-257 melanoma
[41] = tested on: CCRF-CEM leukemia
[42] = tested on: M14 melanoma
[43] = tested on: SN12C renal
[44] = tested on: SK-MEL-2 melanoma
[45] = tested on: SK-OV-3 ovarian
[46] = tested on: HCT-116 colon
[47] = tested on: HCT-15 colon
[48] = tested on: K-562 leukemia
[49] = tested on: NCI-H23 lung
[50] = tested on: MCF7 breast
[51] = tested on: UACC-62 melanoma
[52] = tested on: PC-3 prostate
[53] = tested on: EKVX NSCLC
[54] = tested on: SF-295 CNS
[55] = tested on: MDA-MB-231 breast
[56] = tested on: NCI/ADR-RES ovarian
[57] = tested on: SK-MEL-28 melanoma
[58] = tested on: HOP-92 NSCLC

In the case of `Clc1ccc(Nc2nnc(CNc3ccc(-c4nnc(Nc5ccc(Cl)cc5)o4)cc3)o2)cc1`, the TGI [1] is reported as 45.1 µM, the TGI [2] is reported as 28.9 µM and the TGI [3] is reported as 49.3 µM. It also gave a TGI [4] of 28.9 µM, a TGI [5] of 23.3 µM and a TGI [6] of 46 µM. It also gave a TGI [7] of 30.4 µM, a TGI [8] of 33.4 µM and a TGI [9] of 27.8 µM. The TGI [10] was 56.6 µM, the TGI [11] was 37.1 µM and the TGI [12] was 36.3 µM. For the same compound, the TGI [13] was 20.7 µM, the TGI [14] was 36.3 µM and the TGI [15] was 28.5 µM. It also gave a TGI [16] of 42.6 µM, a TGI [17] of 26.2 µM and a TGI [18] of 34.6 µM. For the same compound, the TGI [19] was 44.5 µM, the TGI [20] was 38.6 µM and the TGI [21] was 47.3 µM. The TGI [22] was 21.8 µM, the TGI [23] was > 100 µM and the TGI [24] was 73.9 µM. The TGI [25] was 23.2 µM, the TGI [26] was 33.1 µM and the TGI [27] was 30.2 µM. For the same compound, the TGI [28] was 51.2 µM, the TGI [29] was > 100 µM and the TGI [30] was 30.6 µM. It also gave a TGI [31] of 35.2 µM, a TGI [32] of 35.1 µM and a TGI [33] of 33.9 µM. For the same compound, the TGI [34] was 40.7 µM, the TGI [35] was 23.9 µM and the TGI [36] was 41.6 µM. It also gave a TGI [37] of 25.7 µM, a TGI [38] of 36.7 µM and a TGI [39] of 43.6 µM. For the same compound, the TGI [40] was 50.6 µM, the TGI [41] was > 100 µM and the TGI [42] was 43.2 µM. The TGI [43] was 36.9 µM, the TGI [44] was 45.8 µM and the TGI [45] was 49.7 µM. For the same compound, the TGI [46] was 33.7 µM, the TGI [47] was 35.4 µM and the TGI [48] was > 100 µM. For the same compound, the TGI [49] was 36 µM, the TGI [50] was 34.9 µM and the TGI [51] was 27.8 µM. The TGI [52] was 25.3 µM, the TGI [53] was 44.4 µM and the TGI [54] was 38.4 µM. For the same compound, the TGI [55] was 25.4 µM, the TGI [56] was > 77.9 µM and the TGI [57] was 34.7 µM. The TGI [58] was 48.7 µM.

With `Cc1cc(N)c2cc(NC(=O)Nc3ccc4nc(C)cc(N)c4c3)ccc2n1` the TGI [2] was > 100 µM, the TGI [3] was > 100 µM and the TGI [4] was > 100 µM. For the same compound, the TGI [5] was > 100 µM, the TGI [6] was > 100 µM and the TGI [7] was > 100 µM. The TGI [8] was > 100 µM, the TGI [9] was > 100 µM and the TGI [10] was > 100 µM. For the same compound, the TGI [11] was > 100 µM, the TGI [13] was > 100 µM and the TGI [14] was > 100 µM. For the same compound, the TGI [15] was > 100 µM, the TGI [16] was > 100 µM and the TGI [17] was > 100 µM. The TGI [19] was > 100 µM, the TGI [20] was > 100 µM and the TGI [21] was > 100 µM. The TGI [22] was > 100 µM, the TGI [23] was > 100 µM and the TGI [24] was > 100 µM. For the same compound, the TGI [25] was > 100 µM, the TGI [26] was > 100 µM and the TGI [27] was > 100 µM. For the same compound, the TGI [28] was > 100 µM, the TGI [30] was > 100 µM and the TGI [31] was > 100 µM. The TGI [32] was > 100 µM, the TGI [33] was > 100 µM and the TGI [34] was > 100 µM. The TGI [35] was > 100 µM, the TGI [36] was > 100 µM and the TGI [37] was > 100 µM. For the same compound, the TGI [38] was > 100 µM, the TGI [39] was > 100 µM and the TGI [40] was > 100 µM. For the same compound, the TGI [41] was > 100 µM, the TGI [42] was > 100 µM and the TGI [43] was > 100 µM. The TGI [44] was > 100 µM, the TGI [45] was > 100 µM and the TGI [46] was > 100 µM. The TGI [47] was > 100 µM, the TGI [48] was > 100 µM and the TGI [49] was > 100 µM. For the same compound, the TGI [50] was > 100 µM, the TGI [51] was > 100 µM and the TGI [52] was > 100 µM. The TGI [53] was > 100 µM, the TGI [54] was > 100 µM and the TGI [55] was > 100 µM. The TGI [56] was > 100 µM, the TGI [57] was > 100 µM and the TGI [58] was > 100 µM.

`CC1=C(C(=O)NCCCN(CCO)CCO)CC(C(=O)NCCCN(CCO)CCO)=C(C)N1` was tested, and the TGI [1] was 80 µM, the TGI [2] was > 100 µM and the TGI [3] was > 100 µM. The TGI [4] was > 100 µM, the TGI [5] was > 100 µM and the TGI [6] was > 100 µM. The TGI [7] was > 100 µM, the TGI [8] was 95.7 µM and the TGI [9] was > 100 µM. For the same compound, the TGI [10] was > 100 µM, the TGI [11] was > 100 µM and the TGI [12] was > 100 µM. For the same compound, the TGI [13] was > 100 µM, the TGI [14] was > 100 µM and the TGI [16] was > 100 µM. The TGI [17] was > 100 µM, the TGI [18] was > 100 µM and the TGI [19] was > 100 µM. The TGI [20] was > 100 µM, the TGI [21] was > 100 µM and the TGI [22] was > 100 µM. The TGI [23] was > 100 µM, the TGI [24] was > 100 µM and the TGI [25] was > 100 µM. For the same compound, the TGI [26] was > 100 µM, the TGI [27] was > 100 µM and the TGI [28] was > 100 µM. The TGI [29] was > 100 µM, the TGI [30] was > 100 µM and the TGI [31] was > 100 µM. The TGI [32] was > 100 µM, the TGI [33] was > 100 µM and the TGI [34] was > 100 µM. For the same compound, the TGI [35] was > 100 µM, the TGI [36] was > 100 µM and the TGI [37] was > 100 µM. The TGI [38] was > 100 µM, the TGI [39] was > 100 µM and the TGI [40] was > 100 µM. For the same compound, the TGI [41] was 77.9 µM, the TGI [42] was > 100 µM and the TGI [43] was > 100 µM. For the same compound, the TGI [44] was > 100 µM, the TGI [45] was > 100 µM and the TGI [46] was > 100 µM. The TGI [47] was > 100 µM, the TGI [48] was > 100 µM and the TGI [49] was > 100 µM. The TGI [50] was > 100 µM, the TGI [51] was > 100 µM and the TGI [52] was > 100 µM. For the same compound, the TGI [53] was > 100 µM, the TGI [54] was > 100 µM and the TGI [55] was > 100 µM. For the same compound, the TGI [56] was > 100 µM and the TGI [58] was > 100 µM.

For `COc1cc2c(cc1OC)-c1[nH]c3ccc([N+](=O)[O-])cc3c1CC(=O)N2`, the TGI [1] was 8.93 µM, the TGI [2] was 8.31 µM and the TGI [3] was > 76.4 µM. The TGI [4] was 8.92 µM, the TGI [5] was > 56.1 µM and the TGI [6] was > 100 µM. For the same compound, the TGI [7] was > 100 µM, the TGI [8] was 5.87 µM and the TGI [9] was 5.6 µM. The TGI [10] was > 60.5 µM, the TGI [12] was 0.716 µM and the TGI [13] was > 100 µM. For the same compound, the TGI [14] was 0.811 µM, the TGI [15] was 9.34 µM and the TGI [16] was > 32.1 µM. For the same compound, the TGI [17] was > 100 µM, the TGI [18] was 4.82 µM and the TGI [19] was > 100 µM. For the same compound, the TGI [20] was > 100 µM, the TGI [21] was 1.66 µM and the TGI [22] was > 100 µM. For the same compound, the TGI [23] was 47.8 µM, the TGI [25] was > 100 µM and the TGI [26] was > 100 µM. For the same compound, the TGI [27] was > 100 µM, the TGI [28] was > 100 µM and the TGI [29] was 7.31 µM. The TGI [30] was > 100 µM, the TGI [31] was > 23.8 µM and the TGI [32] was 9.81 µM. The TGI [33] was > 26.9 µM, the TGI [34] was > 83.2 µM and the TGI [35] was 1.61 µM. The TGI [36] was 6.4 µM, the TGI [37] was > 100 µM and the TGI [38] was > 100 µM. The TGI [39] was 6.2 µM, the TGI [40] was 47.1 µM and the TGI [41] was > 37.6 µM. The TGI [42] was > 100 µM, the TGI [43] was > 55.1 µM and the TGI [44] was > 52.3 µM. For the same compound, the TGI [45] was > 29.8 µM, the TGI [47] was > 100 µM and the TGI [48] was > 100 µM. For the same compound, the TGI [49] was > 100 µM, the TGI [50] was 34.9 µM and the TGI [51] was > 100 µM. The TGI [52] was 99.4 µM, the TGI [53] was > 84.3 µM and the TGI [54] was > 87.8 µM. The TGI [55] was > 100 µM, the TGI [56] was > 100 µM and the TGI [57] was > 100 µM. The TGI [58] was > 100 µM.
